Source: article PMC10708125, “Antidiabetic Activity, Molecular Docking, and ADMET Properties of Compounds Isolated from Bioactive Ethyl Acetate Fraction of Ficus lutea Leaf Extract” (Molecules, 2023)
Like-named read-outs stand apart in the source and are kept apart here.

Tests used:
[1] = target: T1, rat intestinal α-glucosidase (Rattus norvegicus, UniProt P23739); assay: α-Glucosidase inhibition assay; format: biochemical
T1 construct: rat intestinal α-glucosidase solution; from tissue; host or cells: rat intestine
T1 sequence (P23739 whole entry): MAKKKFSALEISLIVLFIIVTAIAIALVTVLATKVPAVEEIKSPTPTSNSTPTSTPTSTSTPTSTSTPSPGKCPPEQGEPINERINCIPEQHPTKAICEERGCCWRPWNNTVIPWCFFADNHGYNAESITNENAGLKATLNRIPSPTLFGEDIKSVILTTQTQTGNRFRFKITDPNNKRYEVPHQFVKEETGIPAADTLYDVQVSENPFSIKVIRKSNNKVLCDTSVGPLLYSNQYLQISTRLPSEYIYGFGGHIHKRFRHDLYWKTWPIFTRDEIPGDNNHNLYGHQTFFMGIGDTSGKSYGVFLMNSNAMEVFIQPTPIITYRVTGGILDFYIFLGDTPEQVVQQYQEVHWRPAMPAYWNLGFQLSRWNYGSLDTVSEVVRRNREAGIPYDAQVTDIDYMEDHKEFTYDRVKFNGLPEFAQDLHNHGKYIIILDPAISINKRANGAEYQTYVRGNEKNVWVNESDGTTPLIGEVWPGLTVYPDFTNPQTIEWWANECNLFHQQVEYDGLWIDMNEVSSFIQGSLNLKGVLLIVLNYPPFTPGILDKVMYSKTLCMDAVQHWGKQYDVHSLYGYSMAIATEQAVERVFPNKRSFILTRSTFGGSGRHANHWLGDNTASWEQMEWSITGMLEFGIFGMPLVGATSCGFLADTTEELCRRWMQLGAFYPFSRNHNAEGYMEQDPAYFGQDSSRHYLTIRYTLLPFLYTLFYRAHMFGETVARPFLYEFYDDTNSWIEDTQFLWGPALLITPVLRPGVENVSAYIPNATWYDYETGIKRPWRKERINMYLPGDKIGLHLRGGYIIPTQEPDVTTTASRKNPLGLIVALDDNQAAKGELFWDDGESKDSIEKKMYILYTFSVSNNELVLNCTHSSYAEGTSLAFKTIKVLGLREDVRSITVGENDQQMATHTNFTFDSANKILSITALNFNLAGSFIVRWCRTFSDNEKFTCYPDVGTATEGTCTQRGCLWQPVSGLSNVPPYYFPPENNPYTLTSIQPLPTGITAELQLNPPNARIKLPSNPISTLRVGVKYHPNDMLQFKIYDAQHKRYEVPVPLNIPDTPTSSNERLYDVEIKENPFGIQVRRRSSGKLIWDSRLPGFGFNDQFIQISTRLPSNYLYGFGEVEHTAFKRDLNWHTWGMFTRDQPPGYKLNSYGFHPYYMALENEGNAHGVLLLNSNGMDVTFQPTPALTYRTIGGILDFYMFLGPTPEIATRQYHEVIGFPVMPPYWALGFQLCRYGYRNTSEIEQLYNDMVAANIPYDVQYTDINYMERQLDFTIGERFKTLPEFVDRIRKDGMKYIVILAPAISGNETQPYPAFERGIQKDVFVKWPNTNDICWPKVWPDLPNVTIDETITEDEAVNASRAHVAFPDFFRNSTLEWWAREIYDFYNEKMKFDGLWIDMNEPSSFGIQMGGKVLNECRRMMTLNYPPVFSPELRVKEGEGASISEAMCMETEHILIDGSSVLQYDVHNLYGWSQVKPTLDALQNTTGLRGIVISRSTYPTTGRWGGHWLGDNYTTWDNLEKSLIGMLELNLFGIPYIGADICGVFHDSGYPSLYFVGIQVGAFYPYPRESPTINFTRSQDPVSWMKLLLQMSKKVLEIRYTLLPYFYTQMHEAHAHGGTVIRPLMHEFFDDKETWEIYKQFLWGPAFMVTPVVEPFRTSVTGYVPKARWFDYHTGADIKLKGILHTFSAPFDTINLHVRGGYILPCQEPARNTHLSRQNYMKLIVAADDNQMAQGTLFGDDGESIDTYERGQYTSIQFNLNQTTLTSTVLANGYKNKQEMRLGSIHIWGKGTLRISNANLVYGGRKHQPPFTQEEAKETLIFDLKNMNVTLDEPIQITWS
Experimental: The effect of the isolated compounds on the activity of the α-glucosidase enzyme was evaluated by the method of Olaokun et al.. Firstly, a solution of 2.5 mg of compound in 1 mL of 50% dimethyl sulfoxide was made. A compound solution (100 μL) and sucrose (200 μL of a 56 mM solution) in 0.1 M PO4 buffer (pH 7) were incubated at 37 °C for 5 min. Then 200 μL of rat intestinal α-glucosidase solution was added with vigorous shaking before incubation for 20 min. Thereafter, 750 μL of 2 M Tris-HCl buffer (pH 6.9) was added to the mixture. […] The quantity of glucose released was estimated using the glucose oxidase method, with absorbance recorded at 540 nm. […] (1) %Inhibition=100×∆AControl−∆ASample/∆AControl∆AControl=ATest−ABlank∆ASample=ATest−ABlank

C2C12 muscle cells = assay: Glucose utilization in C2C12 muscle cells; format: cell-based; details: 250 µg/mL, 1 h, percentage of untreated control cells ± SEM
Experimental: (§1) The potential of compounds to stimulate cells to utilize glucose was estimated using the method adopted by Olaokun et al.. […] The C2C12 cells were incubated for 4 days, while the H-4-11-E cells were incubated for 2 days at 37 °C in a 5% CO2 incubator. Thereafter, the cells were examined and utilized for the glucose uptake assay. […] The treated cells were incubated for 1 h (C2C12) and 3 h (H-4-11-E). The positive control was insulin (Sigma) (1 μM) for C2C12 cells and metformin (Sigma) (1 µM) for H-4-11-E cells. Thereafter, the amount of glucose in the medium was evaluated using the glucose oxidase method, with absorbance recorded at 540 nm. The percentage of glucose utilized was calculated as the percentage change in absorbance in comparison to the untreated cells using Equation (2). (2) %Glucose utilized=100×∆AControl (untreated cells)−∆ASample (treated cells)/∆AControl (untreated cells)

H-4-11-E rat liver cells = assay: Glucose utilization in H-4-11-E liver cells; format: cell-based; details: 250 µg/mL, 3 h, percentage of untreated control cells ± SEM
Experimental: as §1

[2] = rat intestinal α-glucosidase, sucrose substrate, mean ± SEM, read-out: IC50, α-glucosidase inhibitory activity (converted)

SMILES	IC50 [1, 2]	Glucose utilization in C2C12 muscle cells (C2C12 muscle cells)	Glucose utilization in H-4-11-E liver cells (H-4-11-E rat liver cells)	IC50 [1]
Oc1ccc(C2Oc3cc(O)cc(O)c3CC2O)cc1 (centres unmarked) [Epiafzelechin, epiafzelechin]	27.9 µM	33.35 ± 1.8%	46.7 ± 1.2%	–
Oc1cc(O)c2c(c1)O[C@H](c1ccc(O)c(O)c1)[C@H](O)C2 [Epicatechin, epicatechin]	19.7 µM	–	32.4 ± 1.5%	–
C=C(C)[C@@H]1CC[C@]2(C)CC[C@]3(C)[C@H](CC[C@@H]4[C@@]5(C)CC[C@H](O)C(C)(C)[C@@H]5CC[C@]43C)[C@@H]12 [Lupeol, lupeol]	–	–	–	> 2340 µM
CC[C@H](/C=C/[C@@H](C)[C@H]1CC[C@H]2[C@@H]3CC=C4C[C@@H](O)CC[C@]4(C)[C@H]3CC[C@]12C)C(C)C [Stigmasterol, stigmasterol]	280 µM	–	–	–
CC(=O)OC1CCC2(C)C(CCC3(C)C2CC=C2C4C(C)C(C)CCC4(C)CCC23C)C1(C)C (stereo not drawn) [α-Amyrin acetate, α-amyrin acetate]	716 µM	–	–	–
